Assay results taken from PubChem BioAssay AID2305 (GlaxoSmithKline (GSK), 2010).

Tested on: P. falciparum 3D7 growth, pLDH absorbance
Assay: P. falciparum 3D7 growth inhibition, dose response, strain 3D7 (AID 2305)

Structure (SMILES)	IC50
Cc1nc(-c2cccc(C(F)(F)F)c2)n2nc(Nc3ccc(OCCN4CCCC4)cc3)ncc12	750 nM
Cc1cc(O)c(CN(C)Cc2ccc3c(c2)OCCO3)cc1C(C)C	670 nM
COc1cc2c(cc1C=CC(=O)N1CCN(Cc3nc4sc(C)c(C)c4c(=O)[nH]3)CC1)OC(C)C2 (centres undefined)	1020 nM
Cc1[nH]c2ccc(-c3ccc(N(C)C)cc3)cc2c(=O)c1Cl	720 nM
CCOc1ccccc1N1CCN(CCCNC(=O)/C(=C/C=C/c2cc3cc(Cl)c(Cl)cc3[nH]2)OC)CC1	850 nM
COc1ccc(NC(=O)[C@H](Cc2ccccc2)Nc2cc(C)nc(NCCc3ccc(F)cc3)n2)cc1	1120 nM
CC(=O)Nc1ncc(C(=O)Nc2cccc(-c3cccc(-c4nc5c(C)cccc5[nH]4)c3)c2)s1	350 nM
COc1ccc(NC(=O)CCNc2cc(C)nc(NCc3cccc(C)c3)n2)cc1	1090 nM
COc1ccc(C2CC(c3ccccc3O)=NN2C(=O)c2ccco2)cc1OC (centres undefined)	950 nM
COc1ccc(CNC(=O)Nc2cc3cc(-c4ccc(CN5CCCC5)cc4)ccc3n3c(C)nnc23)cc1	650 nM
CCCN(CC1CC1)c1ncc(-c2cccc(CNCc3ccccc3O)c2)cn1	700 nM
O=c1c(Br)c(C(F)(F)F)[nH]c2ccc(Oc3ccccc3)cc12	1100 nM
O=C(Cc1cccs1)NC(CCCN1CCC(Oc2cccc(Cl)c2)CC1)c1ccc(Cl)c(Cl)c1 (centres undefined)	250 nM
CCOc1ccc2c(NN=Cc3cccc(F)c3)cc(C)nc2c1	710 nM
COc1ccc(Nc2ncc3c(-c4cccc(NC(=O)c5ccc(N)cc5)c4)c[nH]c3n2)cc1OC	970 nM
CCOC(=O)c1ccc(NC(=O)Nc2ccc(Cn3ncc(N4CCCNCC4)c(Cl)c3=O)cc2)cc1	440 nM
Cc1ccc2nc(-c3ccccc3)cc(NN=Cc3cccnc3)c2c1	690 nM
Cc1ccc(N2C(N)=NC(N)=NC2c2ccccc2)cc1 (centres undefined)	60 nM
CS(=O)(=O)Nc1ccc(-c2cnc3[nH]cc(-c4ccc(C(=O)O)cc4)c3c2)cc1	800 nM
O=C(c1ccc(-c2ccc(-c3nc4ccccc4[nH]3)s2)cc1)N1CCCCC1CN1CCC(O)C1 (centres undefined)	1050 nM
CCN(CC)CCN(Cc1ccc(-c2ccc(C(F)(F)F)cc2)cc1)C(=O)Cn1c(CCc2cccc(F)c2F)cc(=O)c(C)c1C	620 nM
COc1ccc(-c2nccc(NC(N)=NCc3ccccc3)n2)cc1	670 nM
Cn1cncc1C(=O)Nc1cccc(-c2ccc(-c3nc4ccc(F)cc4[nH]3)s2)c1	870 nM
COc1cc2nc(NCCc3cccc(Cl)c3)nc(NCc3ccccc3)c2cc1OC	120 nM
CCc1c(C)nc(-n2nc(C)cc2NC(=O)c2cccc3ccccc23)[nH]c1=O	680 nM

Structure (SMILES)	IC50
Cn1ccnc1Sc1ncccc1[N+](=O)[O-]	970 nM
CCN(CC)CCN(Cc1ccc(-c2ccc(C(F)(F)F)cc2)cc1)C(=O)Cn1c(SCc2ccc(F)c(F)c2F)nc(=O)c2c1CCC2	1020 nM
c1ccc(C(c2cccs2)N2CCN(Cc3ccc(OCCCN4CCCCC4)cc3)CC2)cc1 (centres undefined)	1230 nM
COc1ccc(-c2ccc(NC(=O)c3cccc(C#N)c3)cc2)cc1CN1CCCN(C)CC1	290 nM
COc1ccc(CCN2CCC(NCc3cccc(N(C)C)c3)CC2)cc1	1320 nM
Oc1ccc2ccccc2c1CNCC1CCCCC1	670 nM
CC(CN(C)C)C(=O)Nc1ccc(-c2cccc(-c3nc4ccccc4[nH]3)c2)cc1 (centres undefined)	720 nM
CN(C(=O)c1ccc(Br)cc1)c1ccccc1[N+](=O)[O-]	930 nM
CC(=O)Nc1ccc2[nH]cc(C3CCN(CC4CCN(C(=O)/C=C/c5ccc(Cl)c(Cl)c5)CC4)CC3)c2c1	720 nM
CC(C)c1ccc(NC(=O)c2ccc(C(=O)NC3CCN(CC4CCCCC4)C3)cc2)cc1 (centres undefined)	790 nM
COc1cccc(CNC(=O)[C@@H]2CN(C(=O)c3ccccc3)CCN2)c1	1160 nM
CC(=O)Oc1ccc(C(=O)Oc2ccccc2C#CC#N)cc1OC(C)=O	320 nM
COc1ccc2ccccc2c1CCCCN1CCN(CC(c2ccc(F)cc2)N2CCN(C(C)C)CC2)CC1 (centres undefined)	810 nM
CC(C)(C(=O)Nc1ccc(C2CCC(NCC3CC3)CC2)c(Cl)c1)c1ccc(C(F)(F)F)cc1 (centres undefined)	960 nM
c1ccc(-c2cc(NCc3cccc4ccccc34)c3[nH]ncc3n2)cc1	520 nM
Clc1ccccc1CCNCC1CCN(CC2CCCCC2)CC1	690 nM
CCCN1CCN(Cc2ccc(C(=O)Nc3ccc(Cl)cc3)cc2)CC1	50 nM
O=C(NCc1ccccc1)Nc1ccc(-c2ccc(-c3nc4ccc(C(F)(F)F)cc4[nH]3)cc2)cc1	670 nM
CC[C@H]1CN(CCCC(=O)c2ccccc2)CC[C@H]1CCCc1ccnc2ccc(OC(=O)c3ccccc3)cc12	830 nM
CCCNCCc1ccc(NS(=O)(=O)c2cccc(-c3ccc(Cl)cc3)c2)cc1	970 nM
Nc1nc(N)c2c(ccc3c2cnn3Cc2cccnc2)n1	50 nM
Cc1cccc2[nH]c(-c3ccc(-c4ccc(NC(=O)C(C)CN(C)C)cc4)cc3)nc12 (centres undefined)	680 nM
CC(C)(C)c1ccc(NC(=O)c2cccc(CN3CCCN(Cc4cccc(C#N)c4)CC3)c2)cc1	760 nM
Cc1cc([N+](=O)[O-])ccc1N1CCN(CCCCNC(=O)c2ccc(NC(=O)c3ccc(Cl)cc3)cc2)CC1	890 nM
